Laboratory results reported in patent US20140154330A1, “SPHERICAL PARTICLES OF CLOPIDOGREL BISULFATE, PHARMACEUTICAL COMPOSITION COMPRISING THE SAME, AND PREPARATION METHOD THEREOF” (ASTECH. CO., LTD., priority 2011, published 2014).

Key:
[1] = laser diffraction, dry module, 1 bar
Method: The particles obtained in Example 1 and Comparative Examples 1 and 2 were analyzed for particle size distribution using a particle size analyzer (Mastersizer 2000®, Malvern) based on laser diffraction. The samples were injected at a pressure of 1 bar with a dry module (Scirocco 2000®, Malvern). Each particle was measured for particle size (d0.1), particle size (d0.5) and particle size (d0.9).

[2] = crystalline form; see U.S. Pat. No. 6,429,210; cited from earlier work

| Structure (SMILES) | d(0.1) [1] [μm] | d(0.5) [1] [μm] | d(0.9) [1] [μm] | density [2] [g/cm^2] |
| --- | --- | --- | --- | --- |
| COC(=O)[C@H](c1ccccc1Cl)N1CCc2sccc2C1 [Comp. Example 1, clopidogrel bisulfate] | 1.052 | 6.055 | 13.724 |  |
| COC(=O)[C@H](c1ccccc1Cl)N1CCc2sccc2C1 [Comp. Example 2, clopidogrel bisulfate] | 8.475 | 85.770 | 168.393 |  |
| COC(=O)[C@H](c1ccccc1Cl)N1CCc2sccc2C1 [Example 1, clopidogrel bisulfate] | 52.536 | 74.567 | 106.074 |  |
| COC(=O)[C@H](c1ccccc1Cl)N1CCc2sccc2C1 [Form I, clopidogrel bisulfate] |  |  |  | 1.505 |
| COC(=O)[C@H](c1ccccc1Cl)N1CCc2sccc2C1 [Form II, clopidogrel bisulfate] |  |  |  | 1.462 |
